According to patent US20210023065A1, “AMPHIPHILIC THIOL COMPOUNDS AND USES THEREOF” (THE REGENTS OF THE UNIVERSITY OF CALIFORNIA, priority 2018, published 2021):

Columns and labels:
[1] = AMD model reaction with S-palmitoyl MESNA (HPLC/ELSD/MS); conditions: 5 mM each reactant, NaH2PO4 buffer 200 mM pH 7.1, 10 mM TCEP, 25° C.
Procedure: The reaction was stirred at 25° C. and aliquots taken at the specified time points and subjected to HPLC/ELSD/MS analysis (Eclipse Plus C8 analytical column, 50-95% MeOH in H2O with 0.1% TFA, 0-7 min; 95% MeOH in H2O with 0.1% TFA, 7 min-end).

Gα(i) = assay: Acyl resin-assisted capture detection of Gα(i) palmitoylation in HeLa cells; type: cell-based; conditions: 1.25 μmol/10^7 cells, relative to vehicle
Procedure: (§1) HeLa cells were grown to confluency in 10 cm plates. Stock solutions of compounds were prepared in DMSO as before and diluted to the final indicated concentration in 5.5 mL of OptiMEM media before adding to cells. Cells were incubated at 37° C. for 20 min and then media removed and 3 mL of HBSS added to each plate. Cells were detached using a cell scraper, pelleted by centrifugation at 1,000 rcf for 5 min and the pellet processed using a CAPTUREome S-Palmitoylated Protein Kit (Badrilla, UK) according to the manufacturer's protocol. Samples were resolved by electrophoresis using 4-20% SDS-polyacrylamide gels (Bio-Rad) under denaturing and reducing conditions. Proteins were then electrotransferred to a PVDF membrane (Bio-Rad). […]
(§2) Assays were performed in 3 biological replicates. […] Western blots were analyzed using ImageJ^1. […]

flotillin-1 = biological target: T1, flotillin-1 (Homo sapiens, UniProt O75955); assay: Acyl resin-assisted capture detection of flotillin-1 palmitoylation in HeLa cells; type: cell-based; conditions: 1.25 μmol/10^7 cells, relative to vehicle
T1 construct: we detected the palmitoylation levels of eight known palmitoylated proteins after treatment with 1; endogenous in cells; host or cells: HeLa
T1 sequence (O75955 1-427): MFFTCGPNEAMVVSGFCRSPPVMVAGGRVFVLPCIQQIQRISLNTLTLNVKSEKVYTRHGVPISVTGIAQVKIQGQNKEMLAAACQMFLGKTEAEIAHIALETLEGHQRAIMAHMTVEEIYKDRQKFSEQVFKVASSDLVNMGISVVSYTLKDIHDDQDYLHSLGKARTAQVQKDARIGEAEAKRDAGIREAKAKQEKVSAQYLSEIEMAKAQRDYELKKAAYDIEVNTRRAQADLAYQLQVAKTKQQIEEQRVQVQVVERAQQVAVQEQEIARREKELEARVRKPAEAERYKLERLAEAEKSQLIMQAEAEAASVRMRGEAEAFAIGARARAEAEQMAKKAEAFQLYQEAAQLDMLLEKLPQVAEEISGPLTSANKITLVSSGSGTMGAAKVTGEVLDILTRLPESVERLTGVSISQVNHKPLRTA
Procedure: as §1, §2

EGFP-HRas = biological target: T2, EGFP-HRas (Homo sapiens, UniProt P01112); assay: Live-cell imaging of EGFP-HRas localization in HeLa cells; type: cell-based
T2 construct: host or cells: HeLa
T2 sequence (P01112 1-186 limits assumed): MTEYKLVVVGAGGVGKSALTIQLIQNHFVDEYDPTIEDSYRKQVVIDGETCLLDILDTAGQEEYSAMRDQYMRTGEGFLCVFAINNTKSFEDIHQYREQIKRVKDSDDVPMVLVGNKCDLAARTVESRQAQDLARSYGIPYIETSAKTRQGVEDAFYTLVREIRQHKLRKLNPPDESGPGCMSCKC
Procedure: Imaging was performed on an Axio Observer Z1 inverted microscope (Carl Zeiss Microscopy Gmb, Germany) with Yokogawa CSU-X1 spinning disk confocal unit using a 63×, 1.4 NA oil immersion or 20×, 0.8 NA objective to an ORCA-Flash4.0 V2 Digital CMOS camera (Hamamatsu, Japan). For live cell imaging, an incubation chamber with temperature and CO2 controllers (World Precision Instruments) was utilized. Fluorophores were excited with s diode laser (488 nm; 30 mW). Images were acquired using Zen Blue software (Carl Zeiss) and processed using Image J.^1
HeLa cells were plated at 40,000 cells/well in an 8-well Lab-Tek chamber slide (ThermoFisher) and allowed to adhere overnight. Cells were transfected with mEGFP-HRas or mEGFP-KRas4b using Lipofectamine 2000 (ThermoFisher) according to the manufacturer's protocol. 50 mM stocks of compounds 1 and 2 were prepared by dissolving the solid compound in DMSO containing 100 mM tris(2-S 3 carboxyethyl)phosphine hydrochloride (TCEP) as a preservative. From these stocks, a solution of 200 μM [1 or 2] (with 400 μM TCEP), or 400 μM TCEP was prepared in OptiMEM media. Before imaging, cells were exchanged into OptiMEM media. The diluted solutions were added to the indicated final concentration within individual wells of the chamber slide and cells imaged while maintaining 37° C., 5% CO2 in the incubation chamber. Images were acquired in 6 different locations across a minimum of 2 independent experiments. […] An unpaired t test was performed to determine the significance of the means before and after treatment.

ERK1/2 (pY204/pY187) = assay: Detection of ERK1/2 phosphorylation in T24 cells (western blot); type: cell-based, human; conditions: T24 cells (oncogenic HRas mutation), 1.25 μmol/10^7 cells, 1 h
Procedure: T24 cells were grown to confluency in 6 cm plates. Stock solutions of compounds were prepared in DMSO as before and diluted to the final indicated concentration in 2 mL of OptiMEM media before adding to cells. Cells were incubated at 37° C. for 1 h and then media removed and 1.5 mL of HBSS added to each plate. Cells were detached using a cell scraper, pelleted by centrifugation at 1,000 rcf for 5 min and the pellet processed using MPER™ Mammalian Protein Extraction Reagent (ThermoFisher) with the addition of Halt Protease Inhibitor Cocktail (ThermoFisher) and 1 mM sodium orthovanadate. Samples were resolved by electrophoresis using 4-20% SDS-polyacrylamide gels (Bio-Rad) under denaturing and reducing conditions. Proteins were then electrotransferred to a PVDF membrane (Bio-Rad). The membrane was blocked with 3% BSA and then subjected to immunoblot analysis using AKT/MAPK Signaling Pathway Antibody Cocktail (ab151279) (Abcam) and secondary goat anti-rabbit IgG-HRP (sc-2030) (Santa Cruz Biotechnology). Chemiluminescent detection was performed by using SuperSignal West Pico PLUS chemiluminescent substrate (ThermoFisher) according to the manufacturer's instructions.
Assays were performed in 3 biological replicates. Western blots were analyzed using ImageJl. The intensity of the protein band in each condition was normalized to the intensity of the corresponding loading control (Rab11). […]

reduction of palmitoylation level of flotillin-1 (flotillin-1): 19-40%
SMILES: CCCCCCCCNC(=O)[C@@H](N)CS [compound 1, H2N-L-Cys-Oct]
reaction with MESNA thiopalmitate 3 (cleavage of model S-palmitoyl group, ligation product 4) [1]: proceeded rapidly and irreversibly
reduction of palmitoylation level of Gα(i) (Gα(i)): > 80%
change in plasma membrane protein localization, statistical analysis of several hundred cells (EGFP-HRas; EGFP-HRas transfected HeLa cells, before vs after treatment): significant change in plasma membrane protein localization
EGFP-HRas localization at the plasma membrane (fluorescence) (EGFP-HRas; HeLa cells, 1.25 μmol/10^7 cells, 20 min): EGFP-HRas localization at the plasma membrane decreased
ERK1/2 phosphorylation (ERK1/2 (pY204/pY187)): near complete abrogation
